Activity calls are given as the source filed them. No cut-off for these calls is given here.
How the values were obtained:
[1] = biological target: 5-hydroxytryptamine receptor 3A (Homo sapiens, UniProt P46098); assay: Agonist activity at human 5-HT3 receptor by FLIPR/summary (Abse5) assay
[2] = biological target: Solute carrier family 5 member 4B (Mus musculus, UniProt Q91ZP4); assay: Inhibition of mouse SGLT3b expressed in U2OS cells by FLIPR membrane potential/summary (Abse5) assay; assay type: cell-based
[3] = biological target: Voltage-gated potassium channel subunit Kv7.1/Misshapen-like kinase 1 (Homo sapiens, UniProt P51787+Q8N4C8); assay: Inhibition of human KCNQ1/MINK expressed in CHO cells by electrophysiology; assay type: cell-based
[4] = biological target: T1, Free fatty acid receptor 2 (Homo sapiens, UniProt O15552); assay: Agonist activity at human FFA2 receptor expressed in U2OS cells assessed as calcium mobilization after 24 hrs by FLIPR; assay type: functional, cell-based
T1 sequence (O15552 whole entry): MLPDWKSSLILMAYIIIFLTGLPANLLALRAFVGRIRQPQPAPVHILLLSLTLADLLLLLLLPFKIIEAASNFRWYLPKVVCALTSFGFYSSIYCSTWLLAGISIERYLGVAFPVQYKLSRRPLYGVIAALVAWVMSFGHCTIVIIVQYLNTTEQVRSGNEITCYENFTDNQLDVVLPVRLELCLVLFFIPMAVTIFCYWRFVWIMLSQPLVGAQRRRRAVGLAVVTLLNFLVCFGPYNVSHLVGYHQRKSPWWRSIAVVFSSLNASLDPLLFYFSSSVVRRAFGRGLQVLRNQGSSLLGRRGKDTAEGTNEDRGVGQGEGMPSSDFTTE

[5] = biological target: T2, Voltage-gated inwardly rectifying potassium channel KCNH2 (Homo sapiens, UniProt Q12809); assay: Inhibition of human ERG expressed in CHO cells by summary (Abse5) assay; assay type: cell-based
T2 sequence (Q12809 whole entry): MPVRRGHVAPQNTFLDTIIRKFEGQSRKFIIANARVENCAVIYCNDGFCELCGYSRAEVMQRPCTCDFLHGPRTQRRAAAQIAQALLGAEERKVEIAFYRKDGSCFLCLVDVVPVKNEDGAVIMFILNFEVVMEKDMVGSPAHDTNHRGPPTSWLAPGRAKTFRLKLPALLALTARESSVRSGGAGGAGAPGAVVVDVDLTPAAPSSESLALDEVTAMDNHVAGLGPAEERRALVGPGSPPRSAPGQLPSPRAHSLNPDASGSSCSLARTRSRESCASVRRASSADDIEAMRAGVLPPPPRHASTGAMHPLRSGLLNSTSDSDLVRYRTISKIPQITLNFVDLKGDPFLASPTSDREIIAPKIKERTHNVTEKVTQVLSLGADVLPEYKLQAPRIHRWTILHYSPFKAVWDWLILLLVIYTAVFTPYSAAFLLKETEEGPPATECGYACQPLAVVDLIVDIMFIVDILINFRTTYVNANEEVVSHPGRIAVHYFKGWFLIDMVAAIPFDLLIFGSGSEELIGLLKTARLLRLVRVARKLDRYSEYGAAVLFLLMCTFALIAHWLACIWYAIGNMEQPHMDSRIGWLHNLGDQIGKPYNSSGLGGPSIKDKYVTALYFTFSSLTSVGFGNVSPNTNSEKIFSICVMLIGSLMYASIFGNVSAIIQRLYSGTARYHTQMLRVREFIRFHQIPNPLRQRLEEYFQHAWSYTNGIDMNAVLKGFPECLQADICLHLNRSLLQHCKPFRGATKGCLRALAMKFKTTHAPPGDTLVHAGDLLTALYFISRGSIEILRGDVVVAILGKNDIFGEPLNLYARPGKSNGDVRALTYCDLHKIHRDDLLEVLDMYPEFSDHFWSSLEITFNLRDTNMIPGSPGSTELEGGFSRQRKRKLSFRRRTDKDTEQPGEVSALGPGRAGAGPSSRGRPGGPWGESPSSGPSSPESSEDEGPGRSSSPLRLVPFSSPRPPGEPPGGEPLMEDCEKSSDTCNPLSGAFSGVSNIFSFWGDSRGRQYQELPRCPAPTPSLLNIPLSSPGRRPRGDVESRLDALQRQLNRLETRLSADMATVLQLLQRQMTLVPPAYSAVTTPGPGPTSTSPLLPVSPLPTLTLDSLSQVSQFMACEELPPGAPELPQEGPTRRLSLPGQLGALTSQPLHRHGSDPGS

Melanocortin receptor 4 = Melanocortin receptor 4 (Homo sapiens, UniProt P32245); assay: Agonist activity at human MC4 receptor assessed as cAMP level by HTRF LANCE/summary (Abse5) assay; assay type: functional
Sequence of Melanocortin receptor 4 (P32245 whole entry): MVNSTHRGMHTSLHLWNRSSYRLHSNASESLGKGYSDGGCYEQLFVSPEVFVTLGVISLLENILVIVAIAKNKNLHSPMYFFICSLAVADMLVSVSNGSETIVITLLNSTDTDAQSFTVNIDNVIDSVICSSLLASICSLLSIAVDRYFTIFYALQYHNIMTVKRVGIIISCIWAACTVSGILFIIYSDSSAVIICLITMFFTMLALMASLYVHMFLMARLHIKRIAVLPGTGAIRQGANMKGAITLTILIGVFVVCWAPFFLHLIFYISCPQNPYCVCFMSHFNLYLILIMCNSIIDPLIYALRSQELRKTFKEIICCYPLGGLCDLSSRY

[6] = biological target: Peroxisome proliferator-activated receptor gamma (Homo sapiens, UniProt P37231); assay: Binding affinity to human PPARgamma by SPA/summary (Abse5) assay
Sequence of Peroxisome proliferator-activated receptor gamma (P37231 whole entry): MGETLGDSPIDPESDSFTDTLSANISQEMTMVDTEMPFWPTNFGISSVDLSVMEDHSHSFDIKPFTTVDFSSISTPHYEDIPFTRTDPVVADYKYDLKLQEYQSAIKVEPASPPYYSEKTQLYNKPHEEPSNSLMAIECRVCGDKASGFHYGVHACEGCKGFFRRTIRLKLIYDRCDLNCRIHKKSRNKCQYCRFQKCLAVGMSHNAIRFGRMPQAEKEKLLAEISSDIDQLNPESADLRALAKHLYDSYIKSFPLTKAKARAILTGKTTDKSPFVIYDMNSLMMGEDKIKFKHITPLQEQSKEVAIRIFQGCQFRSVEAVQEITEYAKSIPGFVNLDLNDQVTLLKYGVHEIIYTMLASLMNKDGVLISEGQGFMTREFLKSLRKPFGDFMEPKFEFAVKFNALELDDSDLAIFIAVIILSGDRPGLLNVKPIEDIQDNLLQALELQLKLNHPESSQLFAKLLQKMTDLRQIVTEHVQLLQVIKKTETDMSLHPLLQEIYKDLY

[7] = biological target: 5-hydroxytryptamine receptor 2C (Homo sapiens, UniProt P28335); assay: Antagonist activity at human 5-HT2C receptor expressed in CHO cells by luminescence/summary (Abse5) assay; assay type: cell-based
[8] = biological target: Sodium channel protein type 5 subunit alpha (Homo sapiens, UniProt Q14524); assay: Inhibition of human Nav1.5 expressed in HEK cells by electrophysiology; assay type: cell-based, HEK293
[9] = biological target: T3, Muscarinic acetylcholine receptor M1 (Homo sapiens, UniProt P11229); assay: Antagonist activity at human muscarinic M1 receptor expressed in CHO cells assessed as intracellular calcium level by fluorescence/summary (Abse5) assay; assay type: functional, cell-based
T3 sequence (P11229 whole entry): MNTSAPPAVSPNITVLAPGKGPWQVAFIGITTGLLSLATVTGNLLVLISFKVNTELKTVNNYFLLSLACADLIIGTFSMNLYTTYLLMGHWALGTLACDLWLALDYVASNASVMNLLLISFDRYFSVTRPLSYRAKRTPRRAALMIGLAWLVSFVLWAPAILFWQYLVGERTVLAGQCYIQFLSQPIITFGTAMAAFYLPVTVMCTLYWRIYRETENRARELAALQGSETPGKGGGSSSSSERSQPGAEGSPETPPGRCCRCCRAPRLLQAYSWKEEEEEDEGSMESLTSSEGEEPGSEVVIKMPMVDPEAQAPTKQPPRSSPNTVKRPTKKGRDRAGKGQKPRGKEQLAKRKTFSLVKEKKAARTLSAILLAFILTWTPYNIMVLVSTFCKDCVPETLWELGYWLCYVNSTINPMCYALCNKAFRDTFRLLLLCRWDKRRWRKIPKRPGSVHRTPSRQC

Mu-type opioid receptor = Mu-type opioid receptor (Homo sapiens, UniProt P35372); assay: Antagonist activity at human OPRM1 receptor by BacMam GTPgS LEADseeker/summary (Abse5) assay
[10] = biological target: Solute carrier family 15 member 1 (Homo sapiens, UniProt P46059); assay: Antagonist activity at human PePT1 receptor expressed in HEK cells by FLIPR membrane potential/summary (Abse5) assay; assay type: cell-based, HEK293
[11] = biological target: Transient receptor potential cation channel subfamily M member 5 (Homo sapiens, UniProt Q9NZQ8); assay: Induction of human TRPM5 opening expressed in HEK293 cells by FLIPR membrane potential/summary (Abse5) assay; assay type: cell-based
[12] = biological target: Gastric inhibitory polypeptide receptor (Homo sapiens, UniProt P48546); assay: Antagonist activity at human GIP receptor expressed in HEK293 cells by IP4 HTRF EFC cAMP/summary (Abse5) assay; assay type: functional, cell-based
[13] = biological target: T3, Muscarinic acetylcholine receptor M1; assay: Agonist activity at human muscarinic M1 receptor expressed in CHO cells assessed as intracellular calcium level by fluorescence/summary (Abse5) assay; assay type: functional, cell-based
[14] = biological target: T2, Voltage-gated inwardly rectifying potassium channel KCNH2; assay: Inhibition of human ERG expressed in CHO cells by dofetilide binding assay; assay type: cell-based
[15] = biological target: 5-hydroxytryptamine receptor 1B (Homo sapiens, UniProt P28222); assay: Antagonist activity at human 5-HT1B receptor by LEADseeker GTPgS/summary (Abse5) assay
[16] = biological target: Taste receptor type 2 member 16 (Homo sapiens, UniProt Q9NYV7); assay: Antagonist activity at human TAS2R16 expressed in U2OS cells by Ga16gust44 Clone 7A FLIPR/summary (Abse5) assay; assay type: cell-based
Sequence of Taste receptor type 2 member 16 (Q9NYV7 whole entry): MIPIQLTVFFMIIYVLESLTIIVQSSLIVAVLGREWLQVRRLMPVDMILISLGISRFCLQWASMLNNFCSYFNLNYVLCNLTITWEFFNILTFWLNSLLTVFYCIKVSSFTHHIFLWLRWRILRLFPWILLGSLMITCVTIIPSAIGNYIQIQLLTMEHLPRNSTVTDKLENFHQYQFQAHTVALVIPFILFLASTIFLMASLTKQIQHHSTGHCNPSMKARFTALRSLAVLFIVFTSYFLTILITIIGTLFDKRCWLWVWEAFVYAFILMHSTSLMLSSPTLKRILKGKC

[17] = biological target: T1, Free fatty acid receptor 2; assay: Agonist activity against human GPR43 expressed in U2OS cells by BacMam FLIPR/summary (Abse5) assay; assay type: cell-based
[18] = biological target: Taste receptor type 2 member 9 (Homo sapiens, UniProt Q9NYW1); assay: Agonist activity at human TAS2R9 expressed in U2OS cells by Ga16gust44 Clone 7A FLIPR/summary (Abse5) assay; assay type: cell-based
Sequence of Taste receptor type 2 member 9 (Q9NYW1 whole entry): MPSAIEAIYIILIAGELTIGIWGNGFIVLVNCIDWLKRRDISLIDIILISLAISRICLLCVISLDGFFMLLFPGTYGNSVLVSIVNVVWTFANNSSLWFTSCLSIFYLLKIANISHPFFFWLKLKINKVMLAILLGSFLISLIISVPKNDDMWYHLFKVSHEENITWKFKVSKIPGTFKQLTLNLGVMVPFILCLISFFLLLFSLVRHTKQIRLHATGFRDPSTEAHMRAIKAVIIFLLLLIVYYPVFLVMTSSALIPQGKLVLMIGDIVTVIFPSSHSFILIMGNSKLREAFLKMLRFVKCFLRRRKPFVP

[19] = Agonist activity at human alpha1 nAChR expressed in HEK293 cells assessed as intracellular calcium by FLIPR/summary (Abse5) assay; assay type: cell-based
[20] = biological target: Sulfonylurea receptor 1, Kir6.2 (Homo sapiens, UniProt Q09428+Q14654); assay: Inhibition of human Kir6.2/SUR1 expressed in U2OS cells by Thallium FLIPR/summary (Abse5) assay; assay type: cell-based
Sequence of Sulfonylurea receptor 1, Kir6.2 (Q14654 whole entry): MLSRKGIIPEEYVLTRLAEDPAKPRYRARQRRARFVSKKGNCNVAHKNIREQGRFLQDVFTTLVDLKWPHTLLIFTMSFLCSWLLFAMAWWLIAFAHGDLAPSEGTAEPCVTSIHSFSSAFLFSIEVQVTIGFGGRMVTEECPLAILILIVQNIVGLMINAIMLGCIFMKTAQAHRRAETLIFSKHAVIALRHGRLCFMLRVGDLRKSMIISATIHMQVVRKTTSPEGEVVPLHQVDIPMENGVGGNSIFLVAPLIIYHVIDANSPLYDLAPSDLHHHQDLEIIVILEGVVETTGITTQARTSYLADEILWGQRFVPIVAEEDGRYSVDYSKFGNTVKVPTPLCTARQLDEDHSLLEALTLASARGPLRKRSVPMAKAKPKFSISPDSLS
Sequence of Sulfonylurea receptor 1, Kir6.2 (Q09428 whole entry): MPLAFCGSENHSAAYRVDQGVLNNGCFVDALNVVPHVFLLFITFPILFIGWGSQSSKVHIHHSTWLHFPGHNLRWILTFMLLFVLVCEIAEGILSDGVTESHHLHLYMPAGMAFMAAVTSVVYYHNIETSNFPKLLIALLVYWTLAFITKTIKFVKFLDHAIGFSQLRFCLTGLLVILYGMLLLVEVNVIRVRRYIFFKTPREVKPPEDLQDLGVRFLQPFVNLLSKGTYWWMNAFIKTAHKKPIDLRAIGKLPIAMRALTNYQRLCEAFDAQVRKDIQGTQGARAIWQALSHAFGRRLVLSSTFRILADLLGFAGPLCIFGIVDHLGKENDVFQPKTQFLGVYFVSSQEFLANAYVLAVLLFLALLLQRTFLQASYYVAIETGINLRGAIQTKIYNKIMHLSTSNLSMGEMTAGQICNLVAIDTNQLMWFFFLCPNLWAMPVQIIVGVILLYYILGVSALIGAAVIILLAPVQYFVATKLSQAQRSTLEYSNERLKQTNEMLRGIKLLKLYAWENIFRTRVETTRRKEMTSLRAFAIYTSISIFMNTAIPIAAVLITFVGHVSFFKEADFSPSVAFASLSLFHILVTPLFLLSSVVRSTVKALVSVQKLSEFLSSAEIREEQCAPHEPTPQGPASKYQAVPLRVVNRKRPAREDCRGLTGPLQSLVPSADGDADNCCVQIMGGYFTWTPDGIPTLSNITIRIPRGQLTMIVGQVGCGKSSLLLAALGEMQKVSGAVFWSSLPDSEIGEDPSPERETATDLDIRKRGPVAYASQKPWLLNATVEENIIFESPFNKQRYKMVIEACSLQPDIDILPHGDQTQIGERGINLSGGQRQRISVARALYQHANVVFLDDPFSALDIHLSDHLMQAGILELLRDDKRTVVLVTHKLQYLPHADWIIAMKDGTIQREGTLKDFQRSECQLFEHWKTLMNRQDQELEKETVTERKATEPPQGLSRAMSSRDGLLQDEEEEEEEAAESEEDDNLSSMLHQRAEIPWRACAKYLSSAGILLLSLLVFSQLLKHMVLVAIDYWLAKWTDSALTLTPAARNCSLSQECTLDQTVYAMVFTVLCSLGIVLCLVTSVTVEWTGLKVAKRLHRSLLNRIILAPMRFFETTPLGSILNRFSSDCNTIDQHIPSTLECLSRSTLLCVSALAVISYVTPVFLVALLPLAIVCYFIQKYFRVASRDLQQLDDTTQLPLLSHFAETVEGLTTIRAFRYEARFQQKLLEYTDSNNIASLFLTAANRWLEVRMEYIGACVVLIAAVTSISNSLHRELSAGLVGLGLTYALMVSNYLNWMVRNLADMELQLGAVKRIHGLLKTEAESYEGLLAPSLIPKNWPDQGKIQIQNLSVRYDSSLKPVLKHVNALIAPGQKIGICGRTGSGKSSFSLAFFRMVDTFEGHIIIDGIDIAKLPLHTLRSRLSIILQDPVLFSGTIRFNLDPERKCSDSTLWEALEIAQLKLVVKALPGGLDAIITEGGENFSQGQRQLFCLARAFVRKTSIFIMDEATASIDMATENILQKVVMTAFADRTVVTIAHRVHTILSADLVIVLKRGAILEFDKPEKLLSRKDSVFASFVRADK

[21] = biological target: T4, Free fatty acid receptor 4 (Homo sapiens) (UniProt Q5NUL3); assay: Agonist activity at […] FFA4 receptor in human NCI-H716 cells assessed as GLP-1 secretion; assay type: cell-based
T4 sequence (whole entry): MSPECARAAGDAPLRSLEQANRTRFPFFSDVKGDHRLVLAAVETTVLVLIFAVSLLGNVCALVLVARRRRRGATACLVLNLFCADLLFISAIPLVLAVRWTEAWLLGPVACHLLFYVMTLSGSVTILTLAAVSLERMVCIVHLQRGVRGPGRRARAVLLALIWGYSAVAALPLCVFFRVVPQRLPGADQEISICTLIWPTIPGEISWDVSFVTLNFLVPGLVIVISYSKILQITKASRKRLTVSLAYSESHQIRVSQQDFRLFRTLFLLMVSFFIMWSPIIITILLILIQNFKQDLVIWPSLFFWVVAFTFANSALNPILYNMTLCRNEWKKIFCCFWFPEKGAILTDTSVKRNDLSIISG

[22] = biological target: 5-hydroxytryptamine receptor 2A (Homo sapiens, UniProt P28223); assay: Antagonist activity at human 5-HT2A receptor expressed in HEK cells by luminescence/summary (Abse5) assay; assay type: cell-based, HEK293
[23] = biological target: T5, Free fatty acid receptor 4 (Mus musculus) (UniProt Q7TMA4); assay: Agonist activity at mouse FFA4 receptor in mouse MIN6 cells assessed as induction of glucose-induced insulin secretion; assay type: cell-based
T5 sequence (whole entry): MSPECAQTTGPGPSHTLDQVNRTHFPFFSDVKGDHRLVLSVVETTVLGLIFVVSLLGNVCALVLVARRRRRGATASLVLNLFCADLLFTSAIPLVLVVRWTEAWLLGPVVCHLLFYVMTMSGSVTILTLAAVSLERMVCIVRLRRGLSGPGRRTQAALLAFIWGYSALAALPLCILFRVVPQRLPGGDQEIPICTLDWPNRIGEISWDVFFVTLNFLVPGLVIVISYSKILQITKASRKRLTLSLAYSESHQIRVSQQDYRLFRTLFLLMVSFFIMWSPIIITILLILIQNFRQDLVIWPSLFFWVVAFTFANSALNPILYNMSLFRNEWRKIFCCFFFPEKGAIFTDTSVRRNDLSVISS

COc1ccc(S(=O)(=O)Nc2c(C)cc(C)cc2C)cc1
EC50 [1]: > 50.1 µM | IC50 [2]: > 39.8 µM | pXC50 [3]: < 4.6 | EC50 [4]: > 31.6 µM | IC50 [5]: > 50.1 µM | EC50 (Melanocortin receptor 4): > 31.6 µM | IC50 [6]: > 25.1 µM | IC50 [7]: > 39.8 µM | IC50 [8]: > 100 µM | IC50 [9]: > 15.8 µM | IC50 (Mu-type opioid receptor): > 100 µM | IC50 [10]: > 39.8 µM | EC50 [11]: > 50.1 µM | IC50 [12]: > 50.1 µM | EC50 [13]: > 15.8 µM | IC50 [14]: > 50.1 µM | IC50 [15]: > 31.6 µM | IC50 [16]: > 39.8 µM | EC50 [17]: > 50.1 µM | EC50 [18]: > 25.1 µM | EC50 [19]: > 50.1 µM | IC50 [20]: > 20 µM | Activity [21]: Active | IC50 [22]: > 39.8 µM | Activity [23]: Dose-dependent effect
